Results from patent publication US9290544B2, “Methods for making and using molecular switches involving circular permutation” (priority 2004, dated 2016).

Key:
[1] = Hydrolysis of ampicillin by RG-200-13 with and without 5 mM maltose; format: biochemical; settings: pH 7.0, 22° C.
Description: (§1) A 6×His tag was added to the C-terminus of RG-200-13 (also termed “RG13” in Examples below) and the fusion was purified as previously described (Guntas and Ostermeier 2004). The protein was purified to approximately 60% purity. The kinetic constants and binding constants were determined from Eadie-Hofstee plots and Eadie plot equivalents, respectively, using a spectrophotometric assay for nitrocefin hydrolysis. Initial rates for nitrocefin hydrolysis were determined from absorbance at 486 nm monitored as a function of time. The enzyme was incubated at the assay temperature in the absence or presence of saccharide for four minutes prior to performing the assay. All assays contained 100 mM sodium phosphate buffer, pH 7.0. The dissociation constant for maltose was determined using change in velocity of nitrocefin hydrolysis as a signal.
(§2) Maltose binding had the largest effect on cephalothin (of the substrates tested), with the velocity of cephalothin hydrolysis being 32-fold higher in the presence of maltose than in its absence.

DH5α-E cells = test: In vivo characterization: MIC of ampicillin for DH5α-E cells expressing the protein; format: cell-based, E. coli; settings: for Minimum Inhibitory Concentration of Ampicillin: LB plates, 37° C., 20 hours
Description: Overnight inoculums of DH5α-E cells expressing RG13, BLA or BLA(W208G) were diluted into LB media and plated on LB plates, either in the absence or presence of 50 μM maltose, in the presence of increasing amounts of ampicillin. Ampicillin was present in the plates at the following concentrations: 0, 2, 4, 8, 16, 32, 64, 128, 256, 512, and 2000 μg/ml. Cells were plated at approximately 1000 CFU (no antibiotic) per plate. The plates were incubated at 37° C. for 20 hours. The minimum inhibitory concentration (MIC) was defined as the lowest ampicillin concentration at which no colonies were present, or that at which the number of colonies present was <1% of the number of colonies at the next lowest level of ampicillin.

E. coli cells = test: MIC of ampicillin for E. coli cells expressing RG13 from pDIMC8 (Table 11); format: cell-based
Description: The signal recognition domain can be altered by rational design or directed evolution to bind to new effectors. With respect to testing mutations predicted by rational design or screening or selecting libraries created for a directed evolution approach, existing switches are used to efficiently test or select for binding to new ligands in vivo. For example, E. coli cells expressing the MBP-BLA switch RG13 from the lac promoter on pDIMC8 have a higher MIC for ampicillin (Amp) in the presence of maltose than in their absence (Table 11) because the BLA enzymatic activity of RG13 (hydrolysis of ampicillin) is higher in the presence of maltose. Thus, for example, mutations created in RG13 (either by rational design or by a stochastic or semi-stochastic method) such that mutant forms of RG13 bind another ligand X (and behave as a switch) can be screened or selected for in vivo. E. coli producing such a new switch will grow at 200 μg/ml Amp in the presence of X but not in the absence of X.

[2] = Dissociation constant for maltose using change in velocity of nitrocefin hydrolysis as signal; settings: 22° C.; read-out: Kd for maltose binding
Description: as §1

[3] = Apparent dissociation constant for maltose from initial rate of nitrocefin hydrolysis; format: binding; settings: 25° C.
Description: [formula] where ΔF is the change in fluorescence intensity, ΔFmax is the difference in fluorescence between no maltose and saturating amounts of maltose and [L] is the maltose concentration. The fluorescence quenching of RG13(1329W/A96W) upon addition of maltose was insufficient to accurately determine a Kd by this method. The dissociation constant for maltose and RG13(I329W) in the presence of saturating carbenicillin (2 mM) was determined by measuring the initial rate of carbenicillin hydrolysis as a function of maltose concentration. The apparent dissociation constant in the presence of subsaturating concentrations of nitrocefin (25 μM) for all three proteins was determined by measuring the initial rate of nitrocefin hydrolysis as a function of maltose concentration.

[4] = Hydrolysis of oxacillin by RG-200-13 with and without 5 mM maltose; format: biochemical; settings: substrate oxacillin 1 mM; pH 7.0, 22° C.
Description: as §1, §2

[5] = Carbenicillin hydrolysis by purified RG13, 25° C.; format: biochemical; settings: 50 μM carbenicillin
Description: All kinetic assays were performed at 25° C. in the presence of 100 mM sodium phosphate buffer, pH 7.0. Ten μl of enzyme stock was added to 1.59 ml buffer (containing the saccharide, if desired). After incubation for 30 seconds, 0.4 ml of 5× substrate was added and the absorbance at the appropriate wavelength was recorded using the Cary50 UV-VIS spectrophotometer. The wavelength monitored was 486 nm, 240 nm, and 232 nm for nitrocefin, carbenicillin, and ampicillin respectively. From the initial rate of reaction the kinetic constants were determined using Eadie-Hofstee plots. […] The rate data was consistent with a small hysteretic effect (Brennan et al. 1994) and not substrate inhibition as preincubation of the enzyme with the substrate for one minute prevented the lag from occurring upon addition of more substrate. Therefore, the steady state parameters for nitrocefin hydrolysis in the absence of maltose were determined by measuring the rate at 1-2 minutes (well after the lag) and correcting the substrate concentration by subtracting the amount of substrate hydrolyzed. In all cases the extent of reaction at the point the rate was measured was less than 25%. In the presence of maltose, no lag was observed.

[6] = Dissociation constant for maltose from initial rate of carbenicillin hydrolysis; format: binding; settings: 1.5 mM carbenicillin, 25° C., read-out: Kd maltose, Saturating Carbenicillin, Enzymatic assay
[7] = Hydrolysis of cephalothin by RG-200-13 with and without 5 mM maltose; format: biochemical; settings: substrate cephalothin 250 μM; pH 7.0, 22° C.
Description: as §1, §2

[8] = 96-well colorimetric nitrocefin hydrolysis screen of lysates with or without 5 mM maltose; format: biochemical; settings: 50 μM nitrocefin
Description: The naïve library was plated on LB agar plates supplemented with 200 μg/ml ampicillin and 50 mM maltose and incubated at 37° C. overnight. From these plates, 1056 colonies were picked to inoculate 1 ml LB media (supplemented with 50 μg/ml chloramphenicol and 1 mM IPTG) in 96-well format. After incubation overnight at 37′C, each culture was lysed using 0.1 ml Popculture reagent, 40 units of rLysozyme, and 2.5 units of benzonase nuclease. Lysates were centrifuged to pellet the insoluble material and the soluble fractions were assayed in 96-well format for nitrocefin hydrolysis in the presence or absence of 5 mM maltose using a colorimetric assay for nitrocefin hydrolysis (Posey et al. 2002). The assays were carried out at room temperature using the Spectramax-384 Plus microplate reader (Molecular Devices) in the presence of 100 mM sodium phosphate buffer and 50 μM nitrocefin in a 200 μl reaction volume.

## RG13: MBP-BLA fusion switch MBP[1-316]-BLA[227-286]-GSGGG-BLA[24-226]-S-MBP[319-370]; SEQ ID NO: 61
[1]; substrate ampicillin 100 μM
  Approximate fold increase in velocity of ampicillin hydrolysis in the presence of 5 mM maltose: ~26 fold
[1]; substrate ampicillin 500 μM
  Approximate fold increase in velocity of ampicillin hydrolysis in the presence of 5 mM maltose: ~10 fold
DH5α-E cells
  Effect of the same concentration (50 μM) of sucrose or glucose on the MIC: did not affect the MIC
  Increase of MIC for ampicillin in the presence of 50 μM maltose: four-fold
DH5α-E cells; 50 μM maltose
  Minimum Inhibitory Concentration of Ampicillin: 512 µg/mL
DH5α-E cells; No maltose
  Minimum Inhibitory Concentration of Ampicillin: 128 µg/mL
E. coli cells; supplement to plate: 50 μM maltose
  MIC ampicillin: 400 µg/mL
E. coli cells; supplement to plate: 5 mM maltose
  MIC ampicillin: 400 µg/mL
E. coli cells; supplement to plate: none, LB plates, 37° C.
  MIC ampicillin: 100 µg/mL
[2]
  Kd: ~5 µM
[3]
  Kd: 6.7 ± 0.03 µM
[4]
  Approximate fold increase in velocity of oxacillin hydrolysis in the presence of 5 mM maltose: ~5 fold
[5]
  Rate increase with maltose: 12 fold
[6]
  Kd: 0.9 ± 0.1 µM
[7]
  Fold increase in velocity of cephalothin hydrolysis with 5 mM maltose: 32 fold
[8]
  Increase of initial velocity of nitrocefin hydrolysis in the presence of maltose: 17 fold
